Measurements from PubChem BioAssay AID1919017 (Molecular Pharmacology Branch, DTP, NCI, 2023).

Tested on: SW1271 complex spheroids with HUVEC/MSC, growth, % test/control
Assay: Anticancer human tumor SW1271 cell line growth inhibition [AhR];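 also: spheroids exposed to agents for 7 days before readout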
Settings: for IC50: curve of first compound; for viability, T/C: stronger effect = lower value
Outline: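 Complex tumor spheroids co-cultured with HUVEC and human MSC stroma; AhR antagonists tested in combination with standard-of-care and investigational agents. Top concentration at or near clinical Cmax (else 10 microM), half-log dilutions; growth expressed as percent test/control.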

## CC(C)c1c(-c2ccccc2)nc2c(C#N)c[nH]n2c1=O + Cc1cncc(-c2nc(NCCc3c[nH]c4ccccc34)c3ncn(C(C)C)c3n2)c1
Second compound 0.1 µM
  IC50: > 10 µM
Second compound 0.316 µM
  IC50: > 10 µM
Second compound 1 µM
  IC50: > 10 µM
Second compound 3.16 µM
  IC50: > 10 µM
Second compound 10 µM
  IC50: 0.472 µM
Second compound 0.1 µM, first compound 0.0316 µM
  viability, T/C: 104%
Second compound 0.1 µM, first compound 0.1 µM
  viability, T/C: 104%
Second compound 0.1 µM, first compound 0.316 µM
  viability, T/C: 96.4%
Second compound 0.1 µM, first compound 1 µM
  viability, T/C: 111%
Second compound 0.1 µM, first compound 3.16 µM
  viability, T/C: 102%
Second compound 0.1 µM, first compound 10 µM
  viability, T/C: 108%
Second compound 0.316 µM, first compound 0.0316 µM
  viability, T/C: 85.2%
Second compound 0.316 µM, first compound 0.1 µM
  viability, T/C: 121%
Second compound 0.316 µM, first compound 0.316 µM
  viability, T/C: 100%
Second compound 0.316 µM, first compound 1 µM
  viability, T/C: 96.3%
Second compound 0.316 µM, first compound 3.16 µM
  viability, T/C: 95.9%
Second compound 0.316 µM, first compound 10 µM
  viability, T/C: 106%
Second compound 1 µM, first compound 0.0316 µM
  viability, T/C: 89.5%
Second compound 1 µM, first compound 0.1 µM
  viability, T/C: 111%
Second compound 1 µM, first compound 0.316 µM
  viability, T/C: 87.6%
Second compound 1 µM, first compound 1 µM
  viability, T/C: 80.2%
Second compound 1 µM, first compound 3.16 µM
  viability, T/C: 87.7%
Second compound 1 µM, first compound 10 µM
  viability, T/C: 82.5%
Second compound 3.16 µM, first compound 0.0316 µM
  viability, T/C: 90.1%
Second compound 3.16 µM, first compound 0.1 µM
  viability, T/C: 93.7%
Second compound 3.16 µM, first compound 0.316 µM
  viability, T/C: 109%
Second compound 3.16 µM, first compound 1 µM
  viability, T/C: 91.5%
Second compound 3.16 µM, first compound 3.16 µM
  viability, T/C: 99.2%
Second compound 3.16 µM, first compound 10 µM
  viability, T/C: 99.9%
Second compound 10 µM, first compound 0.0316 µM
  viability, T/C: 53.4%
Second compound 10 µM, first compound 0.1 µM
  viability, T/C: 58%
Second compound 10 µM, first compound 0.316 µM
  viability, T/C: 48%
Second compound 10 µM, first compound 1 µM
  viability, T/C: 48.2%
Second compound 10 µM, first compound 3.16 µM
  viability, T/C: 44.8%
Second compound 10 µM, first compound 10 µM
  viability, T/C: 50.4%
